Measured values taken from patent publication US20220125754A1, “TREATING THE CAUSATIVE AGENT IN ADHESIOGENESIS” (Helmholtz Zentrum München - Deutsches Forschungszentrum Für …, priority 2019, published 2022).

What was measured:
Met-5A cells = assay: Adhesion propagation assay (nanoluciferase expressing Met-5A cells); format: cell-based, human; settings: for transmissibility: 10 μM, 24 hours, adhesion propagation assay (FIG. 6D) and Cre-exchange transmission assay (FIG. 6E)
Method: […] After 24 hours, unbound carriers were washed away and nanoluciferase luminescence was measured. This represents the initial stress-dependent transmitted adhesion.
[…] Carriers were then separated from the monolayer and placed on an unstressed Met-5A wild-type monolayer. After 24 hours, unbound beads were washed away and nanoluciferase luminescence was measured. This represents the first stress-independent transmitted adhesion.
Carriers were then separated from the monolayer and placed on unstressed cell-covered beads stably expressing nanoluciferase (AF1) for 3 hours. Carriers were then isolated once more and placed on an unstressed Met-5A monolayer stably expressing the dTomato-P2A-NanoLuciferase reporter construct (AF34). Unbound beads were then washed away and nanoluciferase luminescence was measured after 24 hours. This represents the second stress-independent transmitted adhesion.
This procedure was continued similarly for the consecutive third and fourth transmissions.
First, repeated consecutive mixing experiments were performed with nanoluciferase-expressing Met-5A cells to study the extent of adhesion propagation. When unstressed cells were exposed to heliocytes, and then separated, they were fully able to generate adhesions even though they had not themselves experienced stress (FIG. 3F). Pharmacological inhibition of HIF-1α signaling has been one of the few proposed intervention routes to reduce adhesion burden^16, thus it was tested to see whether the HIF-1α inhibitor echinomycin could inhibit transmissibility. […] Transmission occurred rapidly, as unstressed cells only had to be exposed to heliocytes for a total of 90 min for successful transmission to occur and allow them to form adhesions themselves (FIG. 3H). Second, two additional cell lines were generated, one expressing Cre recombinase and one expressing a stop codon flanked by two LoxP sites followed by a dTomato-P2A-Nanoluciferase. In this transmission assay, Cre recombinase only drives dTomato-P2A-Nanoluc expression if extensive cytoplasmic mixing occurs that allows Cre recombinase protein to be transferred and shuttled into the nucleus of the dTomato-P2A-Nanoluc cells. Indeed, extensive dTomato fluorescence was observed 3 hours after unstressed carriers were seeded onto a stressed monolayer (FIG. 3I). Under consecutive mixing conditions, like the propagation set-up, naive cells receiving cellular contents from heliocytes could in turn transmit to other cells independently from HIF-1α signaling, for a total of three rounds after the original stress stimulus (FIGS. 3J and K). Because cytoskeletal networks and membrane shuffling are extremely sensitive to shifts in available calcium^17, it was asked whether calcium signaling underlies heliocyte formation and filipodial extensions, using two independent approaches.

[1] = test system: caspase3 activity in heliocytes; assay: Caspase3 activity reporter assay (nanoluciferase-caspase3 cleavage site-degradation peptide); format: cell-based, human; settings: stressed mesothelial cells (heliocytes), compared to control (FIG. 12)
Method: Then, determination of caspase3 activity in heliocytes was performed. Cells stably expressing a nanoluciferase-caspase3-cleaving-site-degredation-peptide (FIG. 12) were grown on beads seeded onto a Met-5A monolayer. After 24 h nanoluciferase activity was determined. The degradation peptide leads to constitutive degradation of nanoluciferase, active caspase3 cleaves the protein linker, thus removing the degradation signal, leading to increased nanoluciferase amount.
(§1) In order to test listed inhibitor treatments for potential unwanted side effects, in vitro as well as in vivo apoptosis readouts were performed. […] Next, fragmented DNA amounts in the in vitro adhesions were determined, staurosporine representing as the positive control. […] Apoptosis signaling cascades dependent on caspase3 protease activity. To screen caspase3 activity in a high throughput manner, a new functional screening assay was developed. The assay is based on a nanoluciferase fused to a degradation signaling peptide interlinked with caspase3 cleavage sites. Once activated, caspase3 cleaves protein linker, removes the degradation signal and prevents proteasomal digestion of the nanoluciferase.

[2] = test system: heliocytes (stressed Met-5A mesothelial cells); assay: Protrusion development in desiccation-stressed Met-5A cells expressing membranous GFP (epi-fluorescence); format: cell-based, human; settings: 10 μM, 24 hours, desiccation stress (FIG. 6B)
Method: (§2) FIG. 6: Single-cell transcriptomics of heliocytes. A) Overview of the Dropseq workflow. B) Epi-fluorescent representative images of Met-5A cells stably expressing membranous GFP, stressed with desiccation and treated with small-molecule compounds for 24 hours (10 μM). Scale bar, 10 μm. C) Desiccation shock induces small-molecule sensitive carrier-carrier aggregation as assessed with a high-throughput nanoluciferase assay. ID) Adhesion propagation assay (see methods) with nanoluciferase expressing Met-5A cells after treatment with small molecule inhibitors for 24 hours (10 μM). E) Cre-exchange transmission assay (see methods) with Cre-recombinase and Cre-dependent nanoluciferase expressing Met-5A cells after treatment with small molecule inhibitors for 24 hours (10 μM).
Met-5A cells were seeded on gelatin (Sigma Aldrich, #G1393) coated dishes. Once a confluent monolayer was established, stressed cell-covered beads were seeded onto the monolayer. For the inhibitory experiments, if not indicated otherwise, monolayer cells were pretreated with the indicated compound for 30 minutes in culture medium. Afterwards the adhesion assay was performed as described above.
Mesothelial protrusion analysis was performed using the Advanced weka segmentation Fiji plugin^37. It utilizes a collection of machine learning algorithms for segmentation. Specifically, pixel-based segmentation is based on image features annotated to different classes. Pixel samples were free drawn and assigned to respective classes, e.g. ‘filopodia’, ‘cell body’, or ‘background’. Subsequent rounds of training were performed to allot respective pixels and structures to its corresponding classes for improved segmentation. Training features, such as ‘Gaussian blur’, ‘Sobel filter’, ‘Hessian’, ‘Difference of Gaussians’ and ‘Membrane projections’ were applied along with default classifier ‘Fast Random Forest’. Other settings were kept as default (membrane thickness 1, membrane patch size 19, minimum sigma 1.0, and maximum sigma 16.0). The trained classifier and data were saved for analysis of other ‘stressed’ and ‘unstressed’ mesothelial datasets. A macro was written to automate the above steps for other datasets with pause for 5 seconds (wait(5000) function) after each step for smooth processing. Images from the segmented classes were extracted and subjected to post processing.
In order to identify underlying mechanisms of heliocyte transformation, differential gene expression analysis was performed using a likelihood-ratio test for single cell gene expression data^21. This identified 1644 genes that were regulated in stressed cells at one or more time points (FDR<10%). […]

[3] = test system: Met-5A cells on microcarrier beads; assay: High-throughput carrier-carrier adhesion assay (nanoluciferase); format: cell-based, human; settings: desiccation shock, high-throughput nanoluciferase assay (FIG. 6C)
Method: as §2
Cells were incubated with ice cold luciferase lysis buffer (25 mM Tris-HCL pH 7.8, 1% Triton X-100, 15 mM MgSO4, 4 mM EGTA, 1 mM DTT) for 20 minutes. Both assays were performed in a 96-wells plate format. Luciferase firefly substrate was dissolved in PBS, and consisted of 20 mM Tricine, 2.67 mM MgSO4, 0.1 mM EDTA, 33.3 mM DTT, 0.52 mM ATP, 0.27 mM Acetyl-CoA, 5 mM NaOH, […], and 0.47 mM D-Luciferin (Carl Roth, #CN24.3). For nanoluciferase, the substrate solution included 47.2 μM Coelenterazine (Carl Roth, #4094.4). Luminescence was detected after 5 minutes of substrate and lysate co-incubation using the TriStar^2 LB 942 Modular Multimode microplate reader (Berthold Technologies).
Met-5A cells were seeded together with Cytodex® 3 microcarrier beads (Sigma Aldrich, #03275) in a ratio of 500:1, and allowed to adhere and grow for 5 days. Cell-covered beads were then eluted from the culture dish using a 25 mL stripette. The resulting solution was strained through a 100 μm cell strainer (Corning, #352360). […] was induced by placing the bead-containing cell strainer under a running cell culture flow hood for 15 minutes. Afterwards, beads were eluted with assay medium and placed in a cultivation dish coated with HEMA silicate solution (Sigma Aldrich, #P3932), to prevent cell attachment. After indicated time points, carrier complexes were collected by filtering them through a 200 μm cell strainer, which allows individual carriers to pass, while trapping carrier complexes. Adhesions were measured in a high throughput manner through the use of Met-5A cells stably expressing luciferase (AF23) or nanoluciferase (AF1) using Integra Viaflo pipettes.

adhesion formation = assay: Murine adhesion model (total adhesion score); format: in vivo, mice; settings: for adhesion formation (adhesion score): daily intraperitoneal injection, day 5 after injury (FIG. 9)
Method: Small molecule inhibitors were solubilized in sterile 2% hydroxyethyl-cellulose (Sigma Aldrich, #09368). Compounds were being added immediately prior to surgery, and were derived from a 100-150 mM stock solution to minimize the final DMSO content. The final solution (200 μL per 30 g body weight) was sandwiched between the visceral and parietal layer of the injured cecum and peritoneum respectively.
Mice were anesthetized by an intraperitoneal injection of a Medetomidin (500 μg/kg), Midazolam (5 mg/kg) and Fentanyl (50 μg/kg) cocktail, hereafter referred to as MMF. Monitoring anesthetic depth was assessed by toe reflex. Eyes were covered with Bepanthen to avoid dehydration, and the abdomen was shaved and disinfected with betadine and sterile phosphate buffered saline (PBS). Animals were kept on their backs on a heating plate at 37° C. A midline laparotomy (1-1.5 cm) was performed through the skin and peritoneum. Four hooks, positioned around the incision and fixed to a retractor and magnetic base plate, allowed for clear access to the abdominal cavity. A small surgical brush was used to gently abrade the peritoneal surface and apposing cecal surface. Two surgical knots using 4-0 silk sutures (Ethicon) were then placed through the serosal surface of the peritoneum. A cotton swab was used to gently apply a dab of talc powder (Sigma Aldrich, #243604) onto the injured surfaces. Before closure of the incision, buprenorphine (0.1 mg/kg) was pipetted in the abdomen to allow for initial post-surgical analgesia. For long-term analgesia, metamizol (Novalgin, 200 mg/kg) was provided through daily injection. The peritoneum and skin were closed with two separate 4-0 silk sutures (Ethicon). Upon closure of the incision, mice were woken up by antagonizing the MMF solution through a subcutaneous cocktail injection of Atipamezol (1 mg/kg) and Flumazenil (0.25 mg/kg). Mice were allowed to recover on a heating pad, after which they were housed together (females) or individually (males), and followed for 1-5 days. Adhesions were scored using gross morphological features that indicated adhesion development. Five individual adhesion features were scored (see table below) that together provided a cumulative value that determined the total adhesion score. With this system, complete absence of adhesions were scored as 0, whereas the maximum adhesion score was 15.
Mice were anesthetized by an intraperitoneal injection of a Medetomidin (500 μg/kg), Midazolam (5 mg/kg) and Fentanyl (50 μg/kg) cocktail, hereafter referred to as MMF. Monitoring anesthetic depth was assessed by toe reflex. Eyes were covered with Bepanthen to avoid dehydration, and the abdomen was shaved and disinfected with betadine and sterile phosphate buffered saline (PBS). Animals were kept on their backs on a heating plate at 37° C. A midline laparotomy (1-1.5 cm) was performed through the skin and peritoneum. Four hooks, positioned around the incision and fixed to a retractor and magnetic base plate, allowed for clear access to the abdominal cavity. A small surgical brush was used to gently abrade the peritoneal surface and apposing cecal surface. Two surgical knots using 4-0 silk sutures (Ethicon) were then placed through the serosal surface of the peritoneum. A cotton swab was used to gently apply a dab of talc powder (Sigma Aldrich, #243604) onto the injured surfaces. Before closure of the incision, buprenorphine (0.1 mg/kg) was pipetted in the abdomen to allow for initial post-surgical analgesia. […]

[4] = test system: stressed mesothelial cells (heliocytes); assay: Apoptosis assay: fragmented DNA (Cell Death Detection ELISA) in in vitro bead assay; format: cell-based, human; settings: 10 μM, stressed mesothelial cells (FIG. 11)
Method: FIG. 11: Apoptosis Assay. Measurement of fragmented DNA as indicator for apoptosis after 5 days having applied CK666, Golgicide A, Rhosin, Bepridil, Heat shock protein inhibitor 1 (HIS-1) using the in vitro bead assay. Stautosporin serves as a positive control.
Met-5A cells were seeded on gelatin (Sigma Aldrich, #G1393) coated dishes. Once a confluent monolayer was established, stressed cell-covered beads were seeded onto the monolayer. For the inhibitory experiments, if not indicated otherwise, monolayer cells were pretreated with 10 μM of indicated compounds for 30 minutes in culture medium. After 24 h fragmented DNA was determined via Cell Death Detection […] (Sigma Aldrich, #11774425001).
as §1

CS[C@H]1SC[C@H]2C(=O)N(C)[C@@H](C(C)C)C(=O)OC[C@@H](NC(=O)c3cnc4ccccc4n3)C(=O)N[C@@H](C)C(=O)N(C)[C@@H]1C(=O)N(C)[C@@H](C(C)C)C(=O)OC[C@@H](NC(=O)c1cnc3ccccc3n1)C(=O)N[C@@H](C)C(=O)N2C [echinomycin]
initial desiccation-induced transmission (Met-5A cells; HIF-1α inhibition (FIG. 3G)): could be prevented

CN[C@@H]1C[C@H]2O[C@@](C)([C@@H]1OC)n1c3ccccc3c3c4c(c5c6ccccc6n2c5c31)C(=O)NC4 [Staurosporine]
caspase3 activity (nanoluciferase activity of reporter) [1]: enhanced nanoluciferase activity

Cc1[nH]c2ccccc2c1CCNC(=O)c1ccccc1F [CK-666]
protrusion development in heliocytes [2]: completely blocked | adhesion formation (carrier-carrier aggregation) [3]: completely blocked | transmissibility (Met-5A cells): completely blocked | adhesion formation (adhesion score) (adhesion formation): robustly inhibited adhesion formation

Fc1cc(F)c2c(c1)C1C=CCC1C(c1cccnc1)N2 (stereo not drawn) [Golgicide A]
protrusion development in heliocytes [2]: completely blocked | adhesion formation (carrier-carrier aggregation) [3]: completely blocked | transmissibility (Met-5A cells): completely blocked | adhesion formation (adhesion score) (adhesion formation): robustly inhibited adhesion formation

CNc1ccc([N+](=O)[O-])c(Nc2ccc3[nH]ncc3c2)n1 [KRIBB11]
adhesion score (adhesion formation; single application of 10 nM in 2% cellulose, topical, 5 days after injury (FIG. 16)): shows no effect

Rhosin
protrusion development in heliocytes [2]: completely blocked | adhesion formation (carrier-carrier aggregation) [3]: completely blocked | transmissibility (Met-5A cells): completely blocked | fragmented DNA (indicator for apoptosis) [4]: significantly more fragmented DNA | caspase3 activity (nanoluciferase activity of reporter) [1]: higher caspase3 activity | adhesion formation (adhesion score) (adhesion formation): robustly inhibited adhesion formation

CC(C)COCC(CN(Cc1ccccc1)c1ccccc1)N1CCCC1 (stereo not drawn) [Bepridil]
protrusion development in heliocytes [2]: completely blocked | adhesion formation (carrier-carrier aggregation) [3]: completely blocked | transmissibility (Met-5A cells): completely blocked | adhesion formation (adhesion score) (adhesion formation): robustly inhibited adhesion formation
